Values of other authors as cited in patent publication US20180193305A1, “CROMOLYN COMPOSITIONS FOR TREATMENT OF CHRONIC COUGH DUE TO IDIOPATHIC PULMONARY FIBROSIS” (Patara Pharma, LLC, priority 2016, published 2018).
Like-named read-outs stand apart in the source and are kept apart here.

Conditions: in vivo

O=C(O)c1cc(=O)c2c(OCC(O)COc3cccc4oc(C(=O)O)cc(=O)c34)cccc2o1 [cromolyn sodium, disodium 5,5′-(2-hydroxypropane-1,3-diyl)bis(oxy)bis(4-oxo-4H-chromene-2-carboxylate)]
Oral bioavailability: ~1% | Oral bioavailability (listed as cromolyn): about 1%
